Biological target: T1, LXRβ (Homo sapiens, UniProt P55055)
T1 construct: Co-transfection expression plasmids, comprising full-length LXRα (pCMX-h LXRα[…] or LXRβ (pCMX-hLXRβ)); expressed in transfected cells; host or cells: CV-1 African Green Monkey Kidney Cells
T1 sequence (P55055 1-460): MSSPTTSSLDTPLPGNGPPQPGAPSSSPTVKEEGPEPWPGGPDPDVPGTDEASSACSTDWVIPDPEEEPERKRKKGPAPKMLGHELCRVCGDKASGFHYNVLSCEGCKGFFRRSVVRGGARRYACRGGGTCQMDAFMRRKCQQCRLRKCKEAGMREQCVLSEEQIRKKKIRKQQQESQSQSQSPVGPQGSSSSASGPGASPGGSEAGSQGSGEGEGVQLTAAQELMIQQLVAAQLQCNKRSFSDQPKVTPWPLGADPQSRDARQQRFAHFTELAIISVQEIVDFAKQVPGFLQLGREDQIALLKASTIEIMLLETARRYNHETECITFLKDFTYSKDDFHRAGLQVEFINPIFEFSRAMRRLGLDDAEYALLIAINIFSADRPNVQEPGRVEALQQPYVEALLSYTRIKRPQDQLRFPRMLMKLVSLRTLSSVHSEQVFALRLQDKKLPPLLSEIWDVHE
T1 sequence (P19793 1-462 partner): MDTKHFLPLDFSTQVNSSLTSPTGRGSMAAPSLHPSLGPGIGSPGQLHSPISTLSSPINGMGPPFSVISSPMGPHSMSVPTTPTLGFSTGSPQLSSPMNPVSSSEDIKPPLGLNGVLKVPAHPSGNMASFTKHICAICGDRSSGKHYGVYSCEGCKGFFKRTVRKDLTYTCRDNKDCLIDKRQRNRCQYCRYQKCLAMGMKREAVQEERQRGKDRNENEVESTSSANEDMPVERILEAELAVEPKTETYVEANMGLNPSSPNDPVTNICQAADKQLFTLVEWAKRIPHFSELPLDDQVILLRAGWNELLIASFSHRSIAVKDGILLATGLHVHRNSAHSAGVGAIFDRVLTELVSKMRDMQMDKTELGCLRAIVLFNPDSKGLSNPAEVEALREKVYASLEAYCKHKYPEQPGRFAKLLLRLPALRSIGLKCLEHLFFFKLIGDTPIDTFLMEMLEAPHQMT
Assay: Co-transfection assay (LXRE luciferase reporter), LXRβ
Type: cell-based
Settings: for EC50: CV-1 cells transfected with pCMX-hLXRβ and LXREx1-Tk-Luciferase, 20 hours incubation; for Emax: LXRβ co-transfection, relative to high control 1-(2,4-difluorobenzyl)-2-oxo-6-(4-phenoxyphenyl)-4-(trifluoromethyl)-1,2-dihydropyridine-3-carbonitrile, read-out: % Efficacy
Outline: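 CV-1 / pCMX-hLXRβ + LXREx1-Tk-Luc + β-gal; cpd 20 h, 37 °C, ≤0.5% DMSO; Steady-Glo luminescence. 11-pt ½-log curves, duplicate wells, sigmoidal fit → EC50; % efficacy vs high-control agonist, DMSO low control; mean of ≥2 expts.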

Compound	EC50 [nM]	Emax [%]
Cc1nc(-c2cc(-c3cccc(S(C)(=O)=O)c3)ccc2-n2cc(C(F)(F)F)nc2C)c(-c2ccc(SC(F)(F)F)cc2)o1 [Example 571, 2-methyl-4-(4-(2-methyl-4-(trifluoromethyl)-1H-imidazol-1-yl)-3′-(methylsulfonyl)-[1,1′-biphenyl]-3-yl)-5-(4-((trifluoromethyl)thio)phenyl)oxazole]	157	49
CS(=O)(=O)c1cccc(-c2ccc(-n3cnc(C(F)F)c3)c(-n3nncc3-c3ccc(OC(F)(F)F)cc3)c2)c1 [Example 170, 1-{4-[4-(difluoromethyl)-1H-imidazol-1-yl]-3′-(methylsulfonyl)biphenyl-3-yl}-5-{4-[(trifluoromethyl)oxy]phenyl}-1H-1,2,3-triazole]	3330	92
Cc1nc(C(F)(F)F)cn1-c1ccc(-c2ccc(CO)c(S(C)(=O)=O)c2)cc1-c1ccnn1-c1ccc(Cl)nc1 [Example 298, (3′-(1-(6-chloropyridin-3-yl)-1H-pyrazol-5-yl)-4′-(2-methyl-4-(trifluoromethyl)-1H-imidazol-1-yl)-3-(methylsulfonyl)biphenyl-4-yl)methanol]	317	71
Cc1ccc(C(C)c2cnnn2-c2cc(-c3cc(F)c(CO)c(S(C)(=O)=O)c3)ccc2-n2cc(C(F)(F)F)nc2C)cc1 (centres unmarked) [Example 9, (3-fluoro-3′-{5-[1-(4-methylphenyl)ethyl]-1H-1,2,3-triazol-1-yl}-5-(methylsulfonyl)-4′-[2-methyl-4-(trifluoromethyl)-1H-imidazol-1-yl]biphenyl-4-yl)methanol]	66	75
Cc1nc(C(F)(F)F)cn1-c1ccc(-c2cc(F)c(CO)c(S(C)(=O)=O)c2)cc1-c1ccnn1-c1ccc(Cl)nc1 [Example 297, (3′-(1-(6-chloropyridin-3-yl)-1H-pyrazol-5-yl)-3-fluoro-4′-(2-methyl-4-(trifluoromethyl)-1H-imidazol-1-yl)-5-(methylsulfonyl)biphenyl-4-yl)methanol]	351	75
CS(=O)(=O)c1cc(-c2cc(Cl)c(-n3cnc(C(F)(F)F)c3)c(-n3nncc3-c3ccc(OC(F)(F)F)cc3)c2)cc(F)c1CO [Example 193, [3′-chloro-3-fluoro-5-(methylsulfonyl)-4′-[4-(trifluoromethyl)-1H-imidazol-1-yl]-5′-(5-{4-[(trifluoromethyl)oxy]phenyl}-1H-1,2,3-triazol-1-yl)biphenyl-4-yl]methanol]	598	62
Cc1nc(-c2cc(-c3cc(F)c(CO)c(S(C)(=O)=O)c3)ccc2-n2cc(C(F)(F)F)nc2C)c(-c2ccc3c(c2)CC(C)(C)O3)o1 [Example 420, (3′-(5-(2,2-dimethyl-2,3-dihydrobenzofuran-5-yl)-2-methyloxazol-4-yl)-3-fluoro-4′-(2-methyl-4-(trifluoromethyl)-1H-imidazol-1-yl)-5-(methylsulfonyl)biphenyl-4-yl)methanol]	82	86
Cc1nc(C(F)(F)F)cn1-c1ccc(-c2cccc(S(C)(=O)=O)c2)cc1-c1nc(C(C)C)oc1-c1ccc(OC(F)(F)F)cc1 [Example 559, 2-isopropyl-4-(4-(2-methyl-4-(trifluoromethyl)-1H-imidazol-1-yl)-3′-(methylsulfonyl)-[1,1′-biphenyl]-3-yl)-5-(4-(trifluoromethoxy)phenyl)oxazole]	34	76
Cc1nc(C(F)(F)F)cn1-c1ccc(-c2cccc(S(C)(=O)=O)c2)cc1-n1nncc1-c1cccc(C(F)(F)F)c1 [Example 25, 1-{3′-(methylsulfonyl)-4-[2-methyl-4-(trifluoromethyl)-1H-imidazol-1-yl]biphenyl-3-yl}-5-[3-(trifluoromethyl)phenyl]-1H-1,2,3-triazole]	529	116
Cc1nc(C(F)(F)F)cn1-c1ccc(-c2ccc(CNS(C)(=O)=O)c(S(C)(=O)=O)c2)cc1-n1nncc1-c1ccc(OC(F)(F)F)cc1 [Example 87, N-{[3-(methylsulfonyl)-4′-[2-methyl-4-(trifluoromethyl)-1H-imidazol-1-yl]-3′-(5-{4-[(trifluoromethyl)oxy]phenyl}-1H-1,2,3-triazol-1-yl)biphenyl-4-yl]methyl}methanesulfonamide]	662	89
Cc1nc(C(C)(F)F)cn1-c1ccc(-c2cccc(S(C)(=O)=O)c2)cc1-c1ocnc1-c1ccc(OC(F)(F)F)cc1 [Example 362, 5-{4-[4-(1,1-difluoroethyl)-2-methyl-1H-imidazol-1-yl]-3′-(methylsulfonyl)biphenyl-3-yl}-4-{4-[(trifluoromethyl)oxy]phenyl}-1,3-oxazole]	691	75
Cc1nc(C(F)(F)F)cn1-c1ccc(-c2cc(F)c(CO)c(S(C)(=O)=O)c2)cc1-n1nncc1-c1ccc(OC(F)(F)F)cc1 [Example 211, (3-fluoro-4′-(2-methyl-4-(trifluoromethyl)-1H-imidazol-1-yl)-5-(methylsulfonyl)-3′-(5-(4-(trifluoromethoxy)phenyl)-1H-1,2,3-triazol-1-yl)-[1,1′-biphenyl]-4-yl)methanol]	127	99
Cc1nc(-c2cc(-c3cccc(S(C)(=O)=O)c3)ccc2-n2cc(C(F)(F)F)nc2C)c(-c2cc(F)c(OC(F)F)c(F)c2)o1 [Example 367, (4-(difluoromethoxy)-3,5-difluorophenyl)-2-methyl-4-(4-(2-methyl-4-(trifluoromethyl)-1H-imidazol-1-yl)-3′-(methylsulfonyl)-[, 1′-biphenyl]-3-yl)oxazole]	175	78
Cc1nc(-c2cc(-c3cccc(S(C)(=O)=O)c3)ccc2-n2cc(C#N)nc2C)c(-c2ccc3c(c2)OC(F)(F)O3)o1 [Example 371, 1-(3-(5-(2,2-difluorobenzo[d][1,3]dioxol-5-yl)-2-methyloxazol-4-yl)-3′-(methylsulfonyl)biphenyl-4-yl)-2-methyl-1H-imidazole-4-carbonitrile]	248	45
Cc1nc(C(F)(F)F)cn1-c1ccc(-c2cc(F)c(CO)c(S(C)(=O)=O)c2)cc1-n1nncc1-c1ccc2occc2c1 [Example 216, (3′-(5-(benzofuran-5-yl)-1H-1,2,3-triazol-1-yl)-3-fluoro-4′-(2-methyl-4-(trifluoromethyl)-1H-imidazol-1-yl)-5-(methylsulfonyl)-[1,1′-biphenyl]-4-yl)methanol]	286	91
Cc1nc(C(F)(F)F)cn1-c1ccc(-c2cc(F)c(CO)c(S(C)(=O)=O)c2)cc1-n1nncc1-c1ccc(OC(F)(F)F)c(F)c1 [Example 56, {3-fluoro-3′-(5-{3-fluoro-4-[(trifluoromethyl)oxy]phenyl}-1H-1,2,3-triazol-1-yl)-5-(methylsulfonyl)-4′-[2-methyl-4-(trifluoromethyl)-1H-imidazol-1-yl]biphenyl-4-yl}methanol]	133	101
Cc1ccc(Cc2cnnn2-c2cc(-c3cccc(S(C)(=O)=O)c3)ccc2-n2cc(C(F)(F)F)nc2C)cc1 [Example 126, 5-[(4-methylphenyl)methyl]-1-{3′-(methylsulfonyl)-4-[2-methyl-4-(trifluoromethyl)-1H-imidazol-1-yl]biphenyl-3-yl}-1H-1,2,3-triazole]	270	93
Cc1nc(C(F)(F)F)cn1-c1ccc(-c2cccc(S(C)(=O)=O)c2)cc1-n1nncc1-c1ccc(SC(F)(F)F)cc1 [Example 32, 1-{3′-(methylsulfonyl)-4-[2-methyl-4-(trifluoromethyl)-1H-imidazol-1-yl]biphenyl-3-yl}-5-{4-[(trifluoromethyl)thio]phenyl}-1H-1,2,3-triazole]	633	84
Cc1nc(-c2cc(-c3cccc(S(C)(=O)=O)c3)ccc2-n2cc(C(F)(F)F)nc2C)c(-c2ccc(Cl)c(OC(F)F)c2)o1 [Example 458, 5-(4-chloro-3-(difluoromethoxy)phenyl)-2-methyl-4-(4-(2-methyl-4-(trifluoromethyl)-1H-imidazol-1-yl)-3′-(methylsulfonyl)biphenyl-3-yl)oxazole]	398	62
